Test results reported in patent publication US10364270B2, “Eye-care peptide, its composition and method of using the same” (PRO SUNFUN BIOTECH RESEARCH AND DEVELOPMENT CO., LTD., priority 2017, dated 2019).
Peptide text beside a SMILES is read from it.

Tested on: HCEC cells
Experiment: MTT assay, viability of HCEC cells
Format: cell-based, Human
Protocol: Human corneal epithelial cell line, HCEC, was cultured in complete KSF containing keratinocyte-serum free medium, 5 ng/ml human recombinant EGF, 0.05 mg/ml bovine pituitary extract, 0.005 mg/ml insulin and 500 ng/ml hydrocortisone under 5% CO2 at 37° C.
Cells (2×10^4) in 1 ml complete KSF were seeded in 12-well plates with or without Peptide NO. 12. Seventy microliters of 5 mg/ml 3-(4,5-dimethyl-2-thiazolyl)-2,5-diphenyl-2H-tetrazolium bromide solution (MTT; Sigma) was added to each well for the indicated times and incubated at 37° C. for 3 hours, after which 700 μl 10% SDS in 0.01 N HCl was added to dissolve the MTT formazan crystals. The resultant optical density was measured spectrophotometrically at dual wavelengths, 550 and 630 nm.

CC(C)C[C@H](NC(=O)[C@@H]1CCCN1C(=O)[C@H](CC(N)=O)NC(=O)[C@@H](N)CCCNC(=N)N)C(=O)N[C@@H](CCC(=O)O)C(=O)N[C@@H](CCC(=O)O)C(=O)N[C@H](C(=O)O)[C@@H](C)O [Peptide NO. 12, ArgAsnProLeuGluGluThr] (H-RNPLEET-OH; N-terminus and C-terminus assumed)
viability of HCEC cells (24 hours, 5, 10, 25 and 50 μg/ml, FIG. 3): did not significantly affect viability of HCEC cells
viability of HCEC cells (48 hours, 5, 10, 25 and 50 μg/ml, FIG. 4): did not significantly affect viability of HCEC cells
